# Results: ChEMBL document CHEMBL1201861, “Genomics of Drug Sensitity in Cancer screening data, Wellcome Trust Sanger Institute”
# What was measured:
# [1] = test system: A 172; experiment: cells; format: functional, cell-based, Homo sapiens; settings: Homo sapiens, A 172;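 note: growth inhibition of A172 cells, measured with a cell viability readout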
# Description: SANGER: Inhibition of human A172 cell growth in a cell viability assay.
# [2] = test system: NCI-H2087; experiment: cells; format: functional, cell-based, Homo sapiens; settings: Homo sapiens, NCI-H2087;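 note: growth inhibition determined with a cell viability readout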
# Description: SANGER: Inhibition of human NCI-H2087 cell growth in a cell viability assay.
# [3] = test system: MRK-nu-1; experiment: cells; format: functional, cell-based, Homo sapiens; settings: Homo sapiens, MRK-nu-1;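 note: cell viability assay measuring growth suppression of human MRK-nu-1 cells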
# Description: SANGER: Inhibition of human MRK-nu-1 cell growth in a cell viability assay.
# [4] = test system: NCI-H2052; experiment: cells; format: functional, cell-based, Homo sapiens; settings: Homo sapiens, NCI-H2052;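 note: growth inhibition of NCI-H2052 cells, read out with a cell viability assay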
# Description: SANGER: Inhibition of human NCI-H2052 cell growth in a cell viability assay.
# [5] = test system: NCI-H2347; experiment: cells; format: functional, cell-based, Homo sapiens; settings: Homo sapiens, NCI-H2347;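 note: growth inhibition of the cell line, read out with a cell viability assay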
# Description: SANGER: Inhibition of human NCI-H2347 cell growth in a cell viability assay.
# [6] = test system: KYSE-270; experiment: cells; format: functional, cell-based, Homo sapiens; settings: Homo sapiens, KYSE-270;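 note: cell growth inhibition measured with a viability assay in the human KYSE-270 line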
# Description: SANGER: Inhibition of human KYSE-270 cell growth in a cell viability assay.
# [7] = test system: 8305C; experiment: cells; format: functional, cell-based, Homo sapiens; settings: Homo sapiens, 8305C
# Description: SANGER: Inhibition of human 8305C cell growth in a cell viability assay.
# [8] = test system: DMS-153; experiment: cells; format: functional, cell-based, Homo sapiens; settings: Homo sapiens, DMS-153
# Description: SANGER: Inhibition of human DMS-153 cell growth in a cell viability assay.
# [9] = test system: BOKU; experiment: cells; format: functional, cell-based, Homo sapiens; settings: Homo sapiens, BOKU;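 note: growth inhibition of the human BOKU cell line, read out by a cell viability assay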
# Description: SANGER: Inhibition of human BOKU cell growth in a cell viability assay.
# [10] = test system: NCI-H28; experiment: cells; format: functional, cell-based, Homo sapiens; settings: Homo sapiens, NCI-H28;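 note: growth inhibition of human NCI-H28 cells, read out as cell viability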
# Description: SANGER: Inhibition of human NCI-H28 cell growth in a cell viability assay.
# [11] = test system: M14; experiment: cells; format: functional, cell-based, Homo sapiens; settings: Homo sapiens, M14;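 note: growth inhibition of M14 cells, read out with a cell viability assay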
# Description: SANGER: Inhibition of human M14 cell growth in a cell viability assay.
# [12] = test system: MDA-MB-175-VII; experiment: cells; format: functional, cell-based, Homo sapiens; settings: Homo sapiens, MDA-MB-175-VII
# [13] = test system: RCM-1; experiment: cells; format: functional, cell-based, Homo sapiens; settings: Homo sapiens, RCM-1;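 note: growth inhibition of the RCM-1 line, determined with a cell viability readout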
# Description: SANGER: Inhibition of human RCM-1 cell growth in a cell viability assay.
# [14] = test system: Hs-578T; experiment: cells; format: functional, cell-based, Homo sapiens; settings: Homo sapiens, Hs-578T
# Description: SANGER: Inhibition of human Hs-578-T cell growth in a cell viability assay.
# [15] = test system: EFM-19; experiment: cells; format: functional, cell-based, Homo sapiens; settings: Homo sapiens, EFM-19;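 note: growth inhibition of human EFM-19 cells, measured in a cell viability assay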
# Description: SANGER: Inhibition of human EFM-19 cell growth in a cell viability assay.
# [16] = test system: Huh-7; experiment: cells; format: functional, cell-based, Homo sapiens; settings: Homo sapiens, Huh-7;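 note: HuH-7 cell growth inhibition, read out with a cell viability assay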
# Description: SANGER: Inhibition of human HuH-7 cell growth in a cell viability assay.
# [17] = test system: ME-180; experiment: cells; format: functional, cell-based, Homo sapiens; settings: Homo sapiens, ME-180;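 note: cell viability assay measuring growth inhibition of ME-180 cells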
# Description: SANGER: Inhibition of human ME-180 cell growth in a cell viability assay.
# [18] = test system: Detroit 562; experiment: cells; format: functional, cell-based, Homo sapiens; settings: Homo sapiens, Detroit 562;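 note: growth inhibition of human Detroit 562 cells, read out by a cell viability assay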
# Description: SANGER: Inhibition of human Detroit562 cell growth in a cell viability assay.
# [19] = test system: CHP-126; experiment: cells; format: functional, cell-based, Homo sapiens; settings: Homo sapiens, CHP-126
# Description: SANGER: Inhibition of human CHP-126 cell growth in a cell viability assay.
# [20] = test system: SNU-423; experiment: cells; format: functional, cell-based, Homo sapiens; settings: Homo sapiens, SNU-423
# Description: SANGER: Inhibition of human SNU-423 cell growth in a cell viability assay.
# [21] = test system: NCI-H2081; experiment: cells; format: functional, cell-based, Homo sapiens; settings: Homo sapiens, NCI-H2081;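 note: growth inhibition of human NCI-H2081 cells, read out with a cell viability assay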
# Description: SANGER: Inhibition of human NCI-H2081 cell growth in a cell viability assay.
# [22] = test system: SW1783; experiment: cells; format: functional, cell-based, Homo sapiens; settings: Homo sapiens, SW1783
# Description: SANGER: Inhibition of human SW1783 cell growth in a cell viability assay.
# [23] = test system: SU-DHL-1; experiment: SANGER: Inhibition of human SU-DHL-1 cell growth in a cell viability assay.; format: functional, cell-based; settings: Homo sapiens, SU-DHL-1
# [24] = test system: SW1990; experiment: cells; format: functional, cell-based, Homo sapiens; settings: Homo sapiens, SW1990
# Description: SANGER: Inhibition of human SW1990 cell growth in a cell viability assay.
# [25] = test system: KYSE-520 cell line; experiment: cells; format: functional, cell-based, Homo sapiens; settings: Homo sapiens, KYSE-520;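 note: growth inhibition of human KYSE-520 cells, read out with a viability assay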
# Description: SANGER: Inhibition of human KYSE-520 cell growth in a cell viability assay.
# [26] = test system: EFO-21; experiment: cells; format: functional, cell-based, Homo sapiens; settings: Homo sapiens, EFO-21;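 note: growth inhibition of EFO-21 cells measured with a viability assay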
# Description: SANGER: Inhibition of human EFO-21 cell growth in a cell viability assay.
# [27] = test system: NCI-H2171; experiment: cells; format: functional, cell-based, Homo sapiens; settings: Homo sapiens, NCI-H2171;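 note: growth inhibition of human NCI-H2171 cells, read out by a cell viability assay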
# Description: SANGER: Inhibition of human NCI-H2171 cell growth in a cell viability assay.
# [28] = test system: OPM-2; experiment: cells; format: functional, cell-based, Homo sapiens; settings: Homo sapiens, OPM-2;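 note: growth of OPM-2 cells measured with a viability assay, IC50 for suppression of proliferation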
# Description: SANGER: Inhibition of human OPM-2 cell growth in a cell viability assay.
# [29] = test system: NCI-H727; experiment: cells; format: functional, cell-based, Homo sapiens; settings: Homo sapiens, NCI-H727;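 note: growth inhibition of human NCI-H727 cells, read out with a cell viability assay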
# Description: SANGER: Inhibition of human NCI-H727 cell growth in a cell viability assay.
# [30] = test system: SN12C; experiment: cells; format: functional, cell-based, Homo sapiens; settings: Homo sapiens, SN12C;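 note: growth inhibition of human SN12C cells, measured by a cell viability assay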
# Description: SANGER: Inhibition of human SN12C cell growth in a cell viability assay.
# [31] = test system: HSC-4; experiment: cells; format: functional, cell-based, Homo sapiens; settings: Homo sapiens, HSC-4;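 note: growth inhibition of human HSC-4 cells, read out with a cell viability assay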
# Description: SANGER: Inhibition of human HSC-4 cell growth in a cell viability assay.
# [32] = test system: NCI-H1693; experiment: cells; format: functional, cell-based, Homo sapiens; settings: Homo sapiens, NCI-H1693;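 note: growth inhibition of the human cell line, read out with a cell viability assay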
# Description: SANGER: Inhibition of human NCI-H1693 cell growth in a cell viability assay.
# [33] = test system: NCI-H748; experiment: cells; format: functional, cell-based, Homo sapiens; settings: Homo sapiens, NCI-H748;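 note: growth inhibition of NCI-H748 cells, measured by a cell viability assay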
# Description: SANGER: Inhibition of human NCI-H748 cell growth in a cell viability assay.
# [34] = test system: HLE; experiment: cells; format: functional, cell-based, Homo sapiens; settings: Homo sapiens, HLE;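 note: growth inhibition of human HLE cells, read out by a cell viability assay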
# Description: SANGER: Inhibition of human HLE cell growth in a cell viability assay.
# [35] = test system: HSC-3; experiment: cells; format: functional, cell-based, Homo sapiens; settings: Homo sapiens, HSC-3
# Description: SANGER: Inhibition of human HSC-3 cell growth in a cell viability assay.
# [36] = test system: 639-V; experiment: cells; format: functional, cell-based, Homo sapiens; settings: Homo sapiens, 639-V;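 note: growth inhibition of 639-V cells, read out with a cell viability assay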
# Description: SANGER: Inhibition of human 639-V cell growth in a cell viability assay.
# [37] = test system: 786-0; experiment: cells; format: functional, cell-based, Homo sapiens; settings: Homo sapiens
# Description: SANGER: Inhibition of human 786-0 cell growth in a cell viability assay.
# [38] = test system: IGROV-1; experiment: cells; format: functional, cell-based, Homo sapiens; settings: Homo sapiens, IGROV-1;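 note: reduction of IGROV-1 cell growth, read out with a viability assay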
# Description: SANGER: Inhibition of human IGROV-1 cell growth in a cell viability assay.
# [39] = test system: C-33-A; experiment: cells; format: functional, cell-based, Homo sapiens; settings: Homo sapiens, C-33-A;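 note: cell viability assay measuring growth inhibition of C-33-A cells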
# Description: SANGER: Inhibition of human C-33-A cell growth in a cell viability assay.
# [40] = test system: GAMG; experiment: cells; format: functional, cell-based, Homo sapiens; settings: Homo sapiens, GAMG;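 note: cell growth inhibition measured by a viability assay in the GAMG human cell line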
# Description: SANGER: Inhibition of human GAMG cell growth in a cell viability assay.
# [41] = test system: HPAF-II; experiment: cells; format: functional, cell-based, Homo sapiens; settings: Homo sapiens, HPAF-II;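 note: growth inhibition of HPAF-II cells, read out with a cell viability assay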
# Description: SANGER: Inhibition of human HPAF-II cell growth in a cell viability assay.
# [42] = test system: LCLC-103H cell line; experiment: cells; format: functional, cell-based, Homo sapiens; settings: Homo sapiens, LCLC-103H
# Description: SANGER: Inhibition of human LCLC-103H cell growth in a cell viability assay.
# [43] = test system: HCC1395; experiment: cells; format: functional, cell-based, Homo sapiens; settings: Homo sapiens, HCC1395;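 note: growth inhibition of HCC1395 cells, read out by a cell viability assay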
# Description: SANGER: Inhibition of human HCC1395 cell growth in a cell viability assay.
# [44] = test system: BFTC-909; experiment: cells; format: functional, cell-based, Homo sapiens; settings: Homo sapiens, BFTC-909
# Description: SANGER: Inhibition of human BFTC-909 cell growth in a cell viability assay.
compound,measurement,setting,value
Oc1ccc2ccccc2c1SSc1c(O)ccc2ccccc12,IC50,[1],> 32 µM
same,IC50,[2],> 32 µM
same,IC50,[3],> 32 µM
same,IC50,[4],> 32 µM
same,IC50,[5],> 32 µM
same,IC50,[6],> 32 µM
same,IC50,[7],4.17 µM
same,IC50,[8],> 32 µM
same,IC50,[9],> 32 µM
same,IC50,[10],> 32 µM
same,IC50,[11],> 32 µM
same,IC50,[12],> 32 µM
same,IC50,[13],> 32 µM
same,IC50,[14],> 32 µM
same,IC50,[15],27.3 µM
same,IC50,[16],> 32 µM
same,IC50,[17],> 32 µM
same,IC50,[18],> 32 µM
same,IC50,[19],6.74 µM
same,IC50,[20],> 32 µM
same,IC50,[21],> 32 µM
same,IC50,[22],> 32 µM
same,IC50,[23],> 32 µM
same,IC50,[24],> 32 µM
same,IC50,[25],> 32 µM
same,IC50,[26],> 32 µM
same,IC50,[27],> 32 µM
same,IC50,[28],> 32 µM
same,IC50,[29],19.7 µM
same,IC50,[30],> 32 µM
same,IC50,[31],> 32 µM
same,IC50,[32],> 32 µM
same,IC50,[33],> 32 µM
same,IC50,[34],4.52 µM
same,IC50,[35],> 32 µM
same,IC50,[36],> 32 µM
same,IC50,[37],3.32 µM
same,IC50,[38],> 32 µM
same,IC50,[39],> 32 µM
same,IC50,[40],> 32 µM
same,IC50,[41],> 32 µM
same,IC50,[42],18.5 µM
same,IC50,[43],> 32 µM
same,IC50,[44],> 32 µM
O=C(O)c1ccc(-c2c[nH]c3ncc(-c4ccccc4)cc23)cc1C1CCCC1 [GSK-650394],IC50,[1],> 16 µM
same,IC50,[2],13.4 µM
same,IC50,[3],7.05 µM
same,IC50,[4],> 16 µM
same,IC50,[5],> 16 µM
same,IC50,[6],2.41 µM
same,IC50,[7],> 16 µM
same,IC50,[8],> 16 µM
same,IC50,[9],> 16 µM
same,IC50,[10],> 16 µM
same,IC50,[11],> 16 µM
same,IC50,[12],> 16 µM
same,IC50,[13],> 16 µM
same,IC50,[14],> 16 µM
same,IC50,[15],> 16 µM
same,IC50,[16],> 16 µM
same,IC50,[17],> 16 µM
same,IC50,[18],12.8 µM
same,IC50,[19],> 16 µM
same,IC50,[20],> 16 µM
same,IC50,[21],> 16 µM
same,IC50,[22],> 16 µM
same,IC50,[23],> 16 µM
same,IC50,[24],> 16 µM
same,IC50,[25],> 16 µM
same,IC50,[26],> 16 µM
same,IC50,[27],> 16 µM
same,IC50,[28],> 16 µM
same,IC50,[29],> 16 µM
same,IC50,[30],> 16 µM
same,IC50,[31],> 16 µM
same,IC50,[32],> 16 µM
same,IC50,[33],> 16 µM
same,IC50,[34],1.43 µM
same,IC50,[35],> 16 µM
same,IC50,[36],5.17 µM
same,IC50,[37],2.95 µM
same,IC50,[38],5.29 µM
same,IC50,[39],8.53 µM
same,IC50,[40],3.9 µM
same,IC50,[41],> 16 µM
same,IC50,[42],3.91 µM
same,IC50,[43],> 16 µM
same,IC50,[44],14.6 µM
